Legend:
[1] = physchem; details: octanol/water
Description: Partition coefficient, log P of the compound by HPLC analysis

[2] = physchem; details: octanol/water; remark: listed apart in the source
Description: Partition coefficient, log P of the compound by shake-flask technique

SMILES | logP [1] | logP [2]
CC(=O)Nc1ccc(OCC(O)CNC(C)C)cc1 (stereo not drawn) [PRACTOLOL] | 0.78 | 0.79
Nc1ccncc1 [DALFAMPRIDINE] | 0.26 | 0.28
COc1ccccc1 [ANISOLE] | 2.1 | –
Brc1cnc2ccccc2c1 | 3.03 | –
c1ccc2nc3ccccc3cc2c1 [ACRIDINE] | 3.39 | 3.4
Cc1ccnc2ccccc12 | 2.52 | –
c1ccc2ncccc2c1 [QUINOLINE] | 2.04 | 2.03
c1ccc2cnccc2c1 [ISOQUINOLINE] | 2.09 | 2.08
Cc1cccnc1 [3-METHYLPYRIDINE] | 1.2 | –
CC(=O)Nc1ccccc1 [ACETANILIDE] | 1.14 | 1.16
c1ccc2nc3ccccc3nc2c1 [PHENAZINE] | 2.81 | 2.85
